Results as given in patent US20220401459A1, “NEW APPLICATION OF CHEMOKINE RECEPTOR CCR6 INHIBITOR IN PREVENTING RECURRENCE OF PSORIASIS” (RUIJIN HOSPITAL, SHANGHAI JIAOTONG UNIVERSITY SCHOOL OF …, priority 2019, published 2022).
“Also recorded” adds a separate entry of the source.

Columns and labels:
[1] = test system: imiquimod (IMQ)-induced mouse psoriasis model; experiment: Imiquimod (IMQ)-induced mouse psoriasis model: GC treatment, withdrawal, re-induced recurrence; format: in vivo; conditions: for proportion of γδT17 (IL-17-secreting) cells in lymph nodes: after drug administration was stopped (2 weeks); for recurrence of psoriasis: psoriasis re-induced with IMQ after withdrawal
Text: (§1) In this example, an animal model to simulate clinical GC treatment for psoriasis was established (FIG. 2a). An imiquimod (IMQ)-induced mouse psoriasis model was utilized to simulate the whole clinical process of topical glucocorticoid treatment in patients with psoriasis: administering of drug—stop administering—recurrence of disease.
(§2) All mice were smeared with IMQ for three weeks. Among them, from the 6th day, GC or petrolatum (Vas) was applied to the skin of the mice, and all treatments were stopped on the 21st day. Mice entered a 2-week drug withdrawal period, after which IMQ was applied again for 7 consecutive days to induce psoriasis recurrence.
In order to simulate the clinical withdrawal period, all mice in the experimental group and the control group were rested for 2 weeks without treatment.
In this example, IMQ was applied to the mice in the experimental group and the control group again to simulate the recurrence of psoriasis after clinical withdrawal.

[2] = test system: imiquimod (IMQ)-induced mouse psoriasis model; experiment: as above; format: in vivo; conditions: imiquimod replaced by mannan for inducing recurrence
[3] = test system: wild-type mice (WT), CCR6−/−, and CCR2−/− mice; experiment: GC treatment and IMQ re-challenge in WT, CCR6−/− and CCR2−/− mice; format: in vivo, mouse
Text: as §1, §2
Cytokine receptors CCR6 and CCR2 are known to mediate the migration of γδT17 cells in the occurrence of skin inflammation. In this example, the above-mentioned mechanism was studied in wild-type mice (WT), CCR6^−/−, and CCR2^−/− mice.

[4] = test system: patients with psoriasis vulgaris; experiment: Psoriasis vulgaris patients, topical GC for 2 weeks, then stopped until relapse (flow cytometry, RNA-seq); format: in vivo, human
Experimental: In this example, patients with psoriasis vulgaris were recruited and glucocorticoids (GC) were topically (externally) administered for 2 weeks of treatment. Thereafter, the administration were stopped until the disease relapsed, and further research on the mechanism of psoriasis recurrence was carried out.
Transcriptome sequencing (RNA-seq) was performed on the skin lesions of these patients before GC treatment, after GC treatment, and after disease recurrence.
In this example, in psoriasis patients receiving GC treatment, the changes in the proportion of CD3+ T cells and T17 cells in the skin and peripheral blood before treatment, after treatment and during recurrence were detected.

[5] = 2 weeks after withdrawal, vs control group
[6] = TCRd−/− mice, IMQ re-challenge, GC vs Vas
[7] = CCR6−/− mice, after GC treatment
[8] = CCR6−/− mice, re-challenge with IMQ
[9] = after treatment and during recurrence
[10] = before, after treatment and during recurrence

## CCCCCCCCc1ccc(CCC(N)(CO)CO)cc1 [FTY720]
[1]; GC group, recurrence
  migration of γδT17 cells from the draining lymph nodes: prevented
[1]; mice in the GC group given FTY720
  rapid recurrence of psoriasis: did not appear rapid recurrence

## C[C@@H]1C[C@H]2[C@@H]3C[C@H](F)C4=CC(=O)C(Cl)=C[C@]4(C)[C@@]3(F)[C@@H](O)C[C@]2(C)[C@@]1(O)C(=O)CO [halometasone]
[1]; 2 weeks after withdrawal
  proportions of γδT, Vγ4, Vγ4Vδ4 cells in draining and distant lymph nodes: remained unchanged or slightly increased
[1]; 2 weeks after withdrawal, vs Vas control group
  neutrophils infiltrated in the skin: more neutrophils were infiltrated
[1]; [5]
  proportion of γδT17 in the skin: also lower
  proportions of CD3, γδT, Vγ4Vδ4 in the skin: still lower
[1]; IMQ re-challenge, GC vs Vas
  levels of IL-17 secreted by CD3 and γδT cells in the skin: not significantly different
  proportions of CD3 and γδT cells in the skin: not significantly different
  proportions of IL-17 secreted by γδT, Vγ4, Vγ4Vδ4 cells in distant lymph nodes: significantly lower
  proportions of Vγ4T17 and Vγ4Vδ4T17 cells in the skin: slightly decreased
  γδT17 in skin draining lymph nodes: no difference
[1]; IMQ re-challenge, vs Vas control group
  infiltrated neutrophils in the skin: exceeded
[1]; IMQ re-challenge, vs Vas group
  epidermal thickening fold: also higher
[1]; TCRd−/− mice, 2 weeks after withdrawal, GC vs Vas
  neutrophils infiltrated in the skin: no difference
[1]; [6]
  ear / epidermal thickening: no difference
  infiltrated neutrophils in the skin: opposite results
[1]; TCRd−/− mice, after treatment, experimental vs control group
  neutrophil infiltration in the skin: no statistical difference
[1]; after drug administration was stopped
  proportion of γδT17 cells in lymph nodes after stimulation: still significantly increased
[1]
  proportion of γδT17 (IL-17-secreting) cells in lymph nodes: still significantly increased
  recurrence of psoriasis: relapsed rapidly
[1]; listed as GC
  proportion of γδT17 (IL-17-secreting) cells in lymph nodes: significantly increased
  recurrence of psoriasis: more severe disease recurrence
[1]; after treatment
  IL-17 secretion by Vγ4 cells and Vγ4Vδ4 cells in draining lymph nodes: secreted more IL-17
  dermal γδT cells, especially Vγ4Vδ4 cells, in the skin: significantly reduced
  proportion of CD3+ T cells in the skin: significantly reduced
  proportion of IL-17 secretion of γδT, Vγ4, Vγ4Vδ4 cells in distal lymph nodes: also higher
  proportion of Vγ4 cells in skin-draining lymph nodes: increased
  proportion of γδT17 cells in draining and distal lymph nodes: significantly increased
  proportion of γδT cells in skin-draining lymph nodes: decreased
  proportions of IL1R expression in γδT, Vγ4, Vγ4Vδ4 cells in the skin: all increased
  proportions of γδT, Vγ4, Vγ4Vδ4 T cells in distal lymph nodes: higher
[1]; after treatment, immunofluorescence and flow staining
  neutrophil infiltration in the skin: reduced
[1]; after treatment, listed as GC
  proportion of IL-17 secretion of γδT, Vγ4, Vγ4Vδ4 cells in distal lymph nodes: all increased
  proportion of γδT17 cells in draining and distal lymph nodes: increased in draining and distant lymph nodes
  proportions of CD3, γδ, Vγ4, Vγ4Vδ4 that secreted IL-17 (γδT17) in the skin: reduced; also recorded: decreased in the skin
  proportions of γδT, Vγ4, Vγ4Vδ4 T cells in distal lymph nodes: all increased
[1]; after using IMQ again for 3 days, vs control group
  ear thickening speed: faster
[1]; day 21, vs control group (Vas)
  ear thickness: significantly thinner
[1]; psoriasis re-induced with IMQ
  proportion of γδT17 cells in draining and distal lymph nodes: significant decrease
[1]; psoriasis re-induced with IMQ, GC group vs Vas
  proportion of Vγ4 and Vγ4Vδ4 T cells in the skin: higher
[1]; psoriasis re-induced with IMQ, GC group vs Vas, listed as GC
  proportions of γδT, Vγ4, Vγ4Vδ4 cells in lymph nodes: varied slightly or did not change; also recorded: mild or no change
[1]; psoriasis re-induced with IMQ, listed as GC
  proportion of γδT17 cells in draining and distal lymph nodes: indistinguishable or even lower
[1]; topical treatment of ear skin inflammation
  symptoms of skin psoriasis: significantly relieved
[2]
  rapid disease recurrence: no longer had rapid disease recurrence
[3]; CCR6 KO mice, recurrence after GC treatment
  proportion of γδT17 cells in lymph nodes: did not show a decrease
[3]; CCR6 knockout mice
  redistribution of γδT17 cells in vivo: did not affect
[3]; [7]
  ear thickness vs corresponding control: no significant difference
  increased levels of IL-17 secreted by γδT, Vγ4, Vγ4Vδ4 cells in draining and distant sites: not observed
[3]; CCR6−/− mice, after treatment
  proportion of γδT cells in lymph nodes: did not show an increase
[3]; [8]
  disease recurrence: significantly suppressed
  levels of IL-17 secreted by dermal γδT, Vγ4, Vγ4Vδ4 cells vs corresponding control group: significantly lower
  proportions of γδT17, Vγ4T17, Vγ4Vδ4T17 cells in draining and distant lymph nodes (decrease): not
[3]; WT and CCR2 mice, re-challenge with IMQ
  disease recurrence: faster disease recurrence
[3]; WT and CCR2−/− mice, after GC treatment
  ear thickness vs corresponding controls: significantly lower
[3]; WT and CCR2−/− mice, re-challenge with IMQ
  levels of IL-17 secreted by CD3, γδT, Vγ4, Vγ4Vδ4 cells in the skin vs corresponding control group: no significant difference
[3]; WT mice, re-challenge with IMQ
  proportions of γδT17, Vγ4T17, Vγ4Vδ4T17 cells in draining and distant lymph nodes: decreased
[3]; WT, CCR6−/− and CCR2−/− mice (three strains), after GC treatment
  ear thickness: reduced
[3]; three strains of mice, after GC treatment
  levels of IL-17 secreted by CD3, γδT, Vγ4, Vγ4Vδ4 cells in the skin: all reduced
[4]; [9]
  expression of chemokines CCL20, CCL5, CCL2, CXCL10 in skin lesions (RNA-seq): decreased after treatment and increased during recurrence
  expression of psoriasis-related genes (IL-17, IL-23) in skin lesions: decreased after treatment, but increased during recurrence
[4]; after treatment and during recurrence, listed as GC
  expression of psoriasis-related genes (IL-17, IL-23) in skin lesions: down-regulated
[4]; [10]
  proportion of IL-17-producing T cells (T17 cells) in skin lesions: decreased after treatment and increased during recurrence
  proportion of IL-17-producing cells (T17 cells) in peripheral blood: increased after treatment and decreased during recurrence
[4]; before, after treatment and during recurrence, listed as GC
  proportion of IL-17-producing T cells (T17 cells) in skin lesions: decreased
[4]; topical treatment
  control of psoriasis: quickly and effectively control psoriasis
